According to patent publication US20210145838A1, “SELECTIVE PDE4D INHIBITORS AGAINST DEMYELINATING DISEASES” (Universiteit Hasselt, priority 2018, published 2021):

Experiments:
[1] = test system: cuprizone demyelinated mice; assay: Object location task (spatial memory) in cuprizone-demyelinated mice; type: in vivo, mouse; settings: for Spatial discrimination index (d2), object location task: day 45 and 47; for Spatial memory in the object location task (D2): day 47, 3 h inter-trial-interval
Text: FIG. 11: Inhibition of PDE4 by roflumilast improves spatial memory upon cuprizone-induced demyelination—a functional measure for remyelination. Forty-two nine-weeks-old male C57bl6 mice were trained for the object location task (OLT) as described previously (Sierksma et al. 2014) (day −14−0). Subsequently, three groups were fed a 0.3% cuprizone diet for 6 weeks to induce demyelination while the control group received a regular chow diet (day 0-42). From day 40 till day 49, control (n=10) and vehicle (n=10) treated animals received a s.c. injection with a 1% DMSO in 0.5% methylcellulose solution or roflumilast (roflu 1 mg/kg (n=11) or roflu 3 mg/kg (n=11) in vehicle) twice a day. All animals were sacrificed at day 49 (A). During the last phase of the cuprizone treatment (demyelination), the OLT was performed at the 3 h inter-trial-interval at day 39.
Next, the OLT was performed during remyelination following cuprizone withdrawal, respectively at 47. […] A one sample t-test was performed to test for spatial memory (e.g. D2≠0*p<0.05; **p<0.01; ***p<0.001). […] All mice not reaching an exploration time of 4 s in either of two trials were excluded from analyses. Extreme values were excluded by means of Dixon's principles of exclusion of extreme values.
FIG. 14: Inhibition of PDE4D by Gebr32a improves spatial memory upon cuprizone-induced demyelination—a functional measure for remyelination. Eighty-eight nine-weeks-old male C57bl6 mice were trained for the object location task (OLT; n=22 per group) as described previously (Sierksma et al. 2014) (day −14−0). Subsequently, three groups were fed a 0.3% cuprizone diet for 6 weeks to induce demyelination while the control group received a regular chow diet (day 0-42). From day 40 till day 49, control and vehicle treated animals received a s.c. injection with a 1% DMSO in 0.5% methylcellulose solution or gebr32a (0.1 mg/kg or 0.3 mg/kg in vehicle) twice a day. All animals were sacrificed at day 49 (A).
Next, the OLT was performed during remyelination following cuprizone withdrawal, respectively at day 45 and 47.
A one sample t-test was performed to test for spatial memory (e.g. D2=/0; *p<0.05; **p<0.01; ***p<0.001). A one-way ANOVA with a Tukey's multiple comparison test was performed. All mice not reaching an exploration time of 4 s in either of two trials were excluded from analyses. Extreme values were calculated and excluded by means of Dixon's principles of exclusion of extreme values.
At the start of the experiment, all animals were phenotyped for baseline cognitive performance in the object location task. Afterwards, 4 groups were defined (n1=13, n2=16, n3=11, n4=11) and group 2, 3 and 4 were subjected to a 0.3% w/w cuprizone diet (Bis(cyclohexanone)-oxaldihydrazone) (Sigma-Aldrich, United States) for 42 days. […]

[2] = test system: primary rat Schwann cells; assay: Differentiation of primary rat Schwann cells; type: cell-based; settings: Roflumilast 5 or 10 μM, BPN14770 1 or 5 μM
Protocol: FIG. 16: Inhibition of PDE4 by roflumilast and PDE4D by BPN induces differentiation of primary rat schwann cells. Primary rat schwann cells were isolated from p3 Wistar rats. Primary rat schwann cells were cultured onto an aligned network of electrospinned fibers and stimulated with vehicle (0.1% DMSO), the PDE4 inhibitor Roflumilast (5 μM or 10 μM) or the PDE4D inhibitor BPN (1 μM or 5 μM), both dissolved in 0.1% DMSO. Cells were fixated (IHC) or lysated (WB and qPCR) at day 14.
A: Primary rat schwann cells were stained for MBP (red) and MAG (green), both markers for Schwann cells differentiation (100.000 cells).
B: MBP and β-actin protein expression of primary rat schwann cells was analyzed using western blot (500.000 cells)
C: qPCR was conducted to evaluate changes in mRNA expression of MBP, PLP, MAG and SOX10. The expression of all these genes was increased upon PDE4 or PDE4D inhibition.
Primary rat Schwann cells were isolated from p3 Wistar rats. […] MBP and β-actin protein expression was analyzed using western blot analysis on primary rat Schwann cells (500.000 cells). […] Data were analyzed using a one-way ANOVA with Dunnett's multiple comparison test (compared to control); *p<0.05, **p<0.01, ***p<0.001. qPCR was conducted to evaluate changes in mRNA expression of MBP, PLP, MAG and SOX10.

[3] = Emetic side-effects at the remyelination-inducing dose; type: in vivo

In the case of `OC(CN1CCOCC1)Cn1ccc(-c2ccc(OC(F)F)c(OC3CCCC3)c2)n1` (stereo not shown) [Gebr32a], the “Spatial discrimination index (d2), object location task” value ([1]; 0.1 mg/kg s.c. twice a day) is reported as “restored the spatial discrimination index (d2) to a level comparable to that of the control animals” and the “Spatial discrimination index (d2), object location task” value ([1]; 0.3 mg/kg s.c. twice a day) is reported as “restored the spatial discrimination index (d2) to a level comparable to that of the control animals”.

For `O=C(Nc1c(Cl)cncc1Cl)c1ccc(OC(F)F)c(OCC2CC2)c1` [roflumilast], the “Spatial memory in the object location task (D2)” value ([1]; 1 mg/kg s.c. twice a day) was “did not show a recovery of the spatial memory”, the “Spatial memory in the object location task (D2)” value ([1]; 3 mg/kg s.c. twice a day) was “significant recovery of spatial memory” and the “MBP and MAG protein expression (IHC)” value ([2]; day 14) was “increases dose-dependently”. For the same molecule, the “mRNA expression of MBP, MAG, PLP and SOX10 (qPCR)” value ([2]; vs control conditions) was “increased” and the Emetic side-effects [3] was “displayed emetic side-effects”.
